Measurements published in the NIST ThermoML archive (doi:10.1016/j.jct.2010.05.009).

Experiments:
[1] = 101 kPa, Liquid; for viscosity: Capillary tube (Ostwald / Ubbelohde) method; for mass density: Vibrating tube method
[2] = refractive index (Na D-line) (dimensionless); conditions: 101.33 kPa, Liquid, Standard Abbe refractometry
[3] = xn = mol fraction of the nth substance listed; conditions: 101 kPa, Liquid; for viscosity: Capillary tube (Ostwald / Ubbelohde) method; for mass density: Vibrating tube method
[4] = refractive index (Na D-line) (dimensionless); xn = mol fraction of the nth substance listed; conditions: 101 kPa, Liquid, Standard Abbe refractometry

CCC(C)(C)O [2-methylbutan-2-ol]
Conditions	mass density, 288.15 K [kg/m3]	mass density, 298.15 K [kg/m3]	mass density, 308.15 K [kg/m3]	refractive index, 288.15 K	refractive index, 298.15 K	refractive index, 308.15 K	viscosity, 288.15 K [mPa·s]	viscosity, 298.15 K [mPa·s]	viscosity, 308.15 K [mPa·s]
[1]	814.01	804.88	795.52	–	–	–	5.867	3.478	2.504
[2]	–	–	–	1.4062	1.4015	1.3968	–	–	–

CCC(C)(C)O [2-methylbutan-2-ol] + CCCN
x1 = 1
Conditions	mass density, 288.15 K [kg/m3]	mass density, 298.15 K [kg/m3]	mass density, 308.15 K [kg/m3]	refractive index, 288.15 K	refractive index, 298.15 K	refractive index, 308.15 K	viscosity, 288.15 K [mPa·s]	viscosity, 298.15 K [mPa·s]	viscosity, 308.15 K [mPa·s]
[3]	814.01	804.88	795.52	–	–	–	5.867	3.478	2.504
[4]	–	–	–	1.4062	1.4015	1.3968	–	–	–

CCCN [propan-1-amine]
Conditions	mass density, 288.15 K [kg/m3]	mass density, 298.15 K [kg/m3]	mass density, 308.15 K [kg/m3]	refractive index, 288.15 K	refractive index, 298.15 K	refractive index, 308.15 K	viscosity, 288.15 K [mPa·s]	viscosity, 298.15 K [mPa·s]	viscosity, 308.15 K [mPa·s]
[1]	721.57	711.08	700.4	–	–	–	0.3851	0.3585	0.3222
[2]	–	–	–	1.3899	1.3844	1.3784	–	–	–

C1CCOC1 [tetrahydrofuran]
Conditions	mass density, 288.15 K [kg/m3]	mass density, 298.15 K [kg/m3]	mass density, 308.15 K [kg/m3]	refractive index, 288.15 K	refractive index, 298.15 K	refractive index, 308.15 K	viscosity, 288.15 K [mPa·s]	viscosity, 298.15 K [mPa·s]	viscosity, 308.15 K [mPa·s]
[1]	892.92	882.03	871.01	–	–	–	0.4991	0.454	0.4172
[2]	–	–	–	1.4086	1.4037	1.3987	–	–	–

C1CCOC1 [tetrahydrofuran] + CCC(C)(C)O
x2 = 0
Conditions	mass density, 288.15 K [kg/m3]	mass density, 298.15 K [kg/m3]	mass density, 308.15 K [kg/m3]	refractive index, 288.15 K	refractive index, 298.15 K	refractive index, 308.15 K	viscosity, 288.15 K [mPa·s]	viscosity, 298.15 K [mPa·s]	viscosity, 308.15 K [mPa·s]
[3]	892.92	882.03	871.01	–	–	–	0.4991	0.454	0.4172
[4]	–	–	–	1.4086	1.4037	1.3987	–	–	–

C1CCOC1 [tetrahydrofuran] + CCCN
x1 = 1
Conditions	mass density, 288.15 K [kg/m3]	mass density, 298.15 K [kg/m3]	mass density, 308.15 K [kg/m3]	refractive index, 288.15 K	refractive index, 298.15 K	refractive index, 308.15 K	viscosity, 288.15 K [mPa·s]	viscosity, 298.15 K [mPa·s]	viscosity, 308.15 K [mPa·s]
[3]	892.92	882.03	871.01	–	–	–	0.4991	0.454	0.4172
[4]	–	–	–	1.4086	1.4037	1.3987	–	–	–
